# Measured values published in patent US20150148256A1, “BIOLUMINESCENCE IMAGING-BASED SCREENING ASSAY AND INHIBITORS OF ABCG2” (THE JOHNS HOPKINS UNIVERSITY, priority 2008, published 2015).
# Structures can show the parent of a compound that is named as a salt.
# Molecular target: T1, ABCG2 (Homo sapiens, UniProt Q9UNQ0)
# T1 sequence (Q9UNQ0 1-655): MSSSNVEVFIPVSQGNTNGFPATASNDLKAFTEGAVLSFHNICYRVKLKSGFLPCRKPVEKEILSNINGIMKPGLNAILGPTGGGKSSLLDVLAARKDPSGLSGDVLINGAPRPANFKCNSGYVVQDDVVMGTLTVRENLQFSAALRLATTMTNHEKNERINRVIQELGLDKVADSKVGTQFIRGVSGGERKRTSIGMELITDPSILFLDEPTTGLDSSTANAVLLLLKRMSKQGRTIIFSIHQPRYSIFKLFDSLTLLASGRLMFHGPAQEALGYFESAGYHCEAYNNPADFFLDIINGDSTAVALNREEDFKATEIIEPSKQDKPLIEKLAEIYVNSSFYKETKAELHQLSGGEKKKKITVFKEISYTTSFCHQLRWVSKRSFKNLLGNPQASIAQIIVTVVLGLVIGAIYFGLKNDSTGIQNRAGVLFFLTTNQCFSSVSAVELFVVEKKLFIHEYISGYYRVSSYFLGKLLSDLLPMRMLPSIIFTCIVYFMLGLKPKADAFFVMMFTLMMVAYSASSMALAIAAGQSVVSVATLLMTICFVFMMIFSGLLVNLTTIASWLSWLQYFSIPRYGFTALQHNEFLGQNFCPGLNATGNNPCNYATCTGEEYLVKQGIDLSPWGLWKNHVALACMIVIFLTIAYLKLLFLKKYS
# Assay: Bioluminescence imaging (BLI) assay in HEK293/ABCG2/fLuc cells
# Conditions: Table 2; HEK293/ABCG2/fLuc cells, compound approximately 17 μM, ~50 μg/mL D-luciferin, 40 min time point
# Procedure: HEK293/ABCG2/fLuc cells were plated into 96-well plates at a density of 4×10^4 cells/100 μL per well and were allowed to attach overnight. The following day, 10 μL of each compound or the control solvent was transferred from a compound library in a 96-well, high-throughput format into the wells using a multichannel pipette. […] Images were taken every 5 minutes for ˜1 h. Light output from each well was quantified at the 40 min time point after initiation of imaging, and the signal-to-background (S/B) ratio of the light output from each compound divided by that from the control well was calculated. This S/B ratio serves as an indicator of the potency of ABCG2 inhibition, the mechanism by which BLI signal is enhanced.
# Images were taken every 5 min for ˜1 h, and light output from each well at the 40 min time point was chosen for quantification. The SB ratio of the light output from each compound divided by that from the control well was calculated. This ratio was used as an indicator of the potency of ABCG2 inhibition, the mechanism by which BLI signal is enhanced.
# The BLI signal-enhancing effect of selected ABCG2 inhibitors was evaluated within the range of 0.001 μM-100 μM, with HEK293/ABCG2/fLuc cells and 50 μg/mL D-luciferin. The data obtained at 40 min after imaging commencement were chosen arbitrarily to be plotted (FIG. 3).
row,Molecule,"Fold (BLI enhancement, S/B ratio over control)"
1,C[C@]12CC[C@@H]3c4ccc(O)cc4CC[C@H]3[C@@H]1CC[C@@H]2OC(=O)CCC1CCCC1 [estradiol cypionate],3.6 fold
2,Cc1c2ccncc2c(C)c2c1[nH]c1ccccc12 [ellipticine],2.5 fold
3,COS(=O)(=O)[O-].C[n+]1c2ccccc2nc2ccccc21 [phenazine methosulfate],2.8 fold
4,O=C(O)CCCc1ccccc1 [phenylbutyric acid],2.1 fold
5,CN1[C@@H]2CC[C@H]1C[C@@H](OC(c1ccccc1)c1ccccc1)C2.CS(=O)(=O)O [benztropin Methane-],2.0 fold
6,antimycin,2.3 fold
7,CC(=O)[C@@]1(O)CC[C@H]2[C@@H]3C=C(Cl)C4=CC(=O)[C@@H]5C[C@@H]5[C@]4(C)[C@H]3CC[C@@]21C [cyproterone],2.0 fold
8,COc1ccc(C(=O)c2c(C)n(CCN3CCOCC3)c3ccccc23)cc1 [pravadoline],2.7 fold
9,C[C@]12CC[C@@H]3c4ccc(O)cc4CC[C@H]3[C@@H]1CC[C@@H]2O [13-estradiol],4.2 fold

# Same assay, conditions: human
row,Molecule,"Fold (BLI enhancement, S/B ratio over control)"
1,CC(C)C[C@H]1C(=O)N2CCC[C@H]2[C@]2(O)O[C@](NC(=O)[C@@H]3C=C4c5cccc6[nH]c(Br)c(c56)C[C@H]4N(C)C3)(C(C)C)C(=O)N12 [bromocriptine mesylate],2.1 fold
2,CC[C@@]1(O)C[C@H](O[C@H]2C[C@H](N(C)C)[C@H](O[C@H]3C[C@H](O)[C@H](O[C@H]4CCC(=O)[C@H](C)O4)[C@H](C)O3)[C@H](C)O2)c2c(cc3c(c2O)C(=O)c2c(O)cccc2C3=O)[C@H]1C(=O)OC [aclarubicin],3.5 fold
3,COc1ccc(Cc2nccc3cc(OC)c(OC)cc23)cc1OC [papaverine hydrochloride],2.0 fold
4,C[C@]12Cc3c[nH]nc3C[C@@H]1CC[C@@H]1[C@@H]2CC[C@@]2(C)[C@H]1CC[C@]2(C)O [stanozolol],2.8 fold

# Same assay, conditions: human, 40 min, 17 μM
Molecule,"Fold (BLI enhancement, S/B ratio over control)","fold (BLI enhancement), additional previously known ABCG2 inhibitors","Fold (BLI enhancement), known compounds","Fold (BLI enhancement), previously unknown compounds",BLI signal enhancement
CCOc1ccc(Cc2nccc3cc(OCC)c(OCC)cc23)cc1OCC [ethaverine hydrochloride],2.6 fold,,,,
CO[C@]12C[C@@H](COC(=O)c3cncc(Br)c3)CN(C)[C@@H]1Cc1cn(C)c3cccc2c13 [nicergoline],2.0 fold,,,,
CCCCCCn1c(=O)c2c(ncn2C)n(C)c1=O [pentifylline],3.8 fold,,,,
"O=c1cc(-c2ccccc2)oc2cc(O)c(O)cc12 [6,7-dihydroxyflavone]",2.7 fold,2.7 fold,,,
CCCCCNC(=N)N/N=C/c1c[nH]c2ccc(OC)cc12 [tegaserod maleate],3.1 fold,,,,
OCCN(CCO)c1nc(N2CCCCC2)c2nc(N(CCO)CCO)nc(N3CCCCC3)c2n1 [dipyridamole],7.1 fold,7.1 fold,7.1 fold,,
COc1ccccc1OCCNCC(O)COc1cccc2[nH]c3ccccc3c12 (stereo not drawn) [carvedilol],10.0 fold,,,,
COc1ccccc1N1CCN(CC(O)COc2cccc3ccccc23)CC1 (stereo not drawn) [naftopidil],2.4 fold,,,,
CC1(C)O[C@@H]2C[C@H]3[C@@H]4CCC5=CC(=O)CC[C@]5(C)[C@@]4(F)[C@@H](O)C[C@]3(C)[C@]2(C(=O)CCl)O1 [halcinonide],2.2 fold,,,,
Brc1c(NC2=NCCN2)ccc2nccnc12 [brimonidine],3.4 fold,,,,
COc1ccc2cc1Oc1ccc(cc1)C[C@H]1c3c(cc4c(c3Oc3cc5c(cc3OC)CCN(C)[C@@H]5C2)OCO4)CCN1C [cepharanthine],2.1 fold,,,,
C=CC1=C(C(=O)O)N2C(=O)[C@@H](NC(=O)/C(=N\OCC(=O)O)c3csc(N)n3)[C@H]2SC1 [citropen],4.3 fold,,,,
Cc1nccn1CC1CCc2c(c3ccccc3n2C)C1=O (stereo not drawn) [ondansetron hydrochloride],2.7 fold,,,,
O=C1CCc2cc(OCCCCc3nnnn3C3CCCCC3)ccc2N1 [cilostazol],3.8 fold,,,,
CCCCC(CC)CNC(=N)NC(=N)NCCCCCCNC(=N)NC(=N)NCC(CC)CCCC (stereo not drawn) [alexidine hydrochloride],3.1 fold,,,,
COCCOC(=O)C1=C(C)NC(C)=C(C(=O)OC(C)C)C1c1cccc([N+](=O)[O-])c1 (stereo not drawn) [nimodipine],2.8 fold,2.8 fold,,,
COC(=O)[C@H]1[C@H]2C[C@H]3c4[nH]c5cc(OC)ccc5c4CCN3C[C@H]2C[C@@H](OC(=O)c2cc(OC)c(OC)c(OC)c2)[C@@H]1OC [isoreserpine],6.2 fold,,,6.2 fold,
CC(=O)SCC(Cc1ccccc1)C(=O)NCC(=O)OCc1ccccc1 (stereo not drawn) [racecadotril],2.0 fold,,,,
COc1ccc2c(c1OC)C(=O)O[C@@H]2[C@H]1c2c(cc3c(c2OC)OCO3)CCN1C [noscapine hydrochloride],2.3 fold,,,,

Molecule,"Fold (BLI enhancement, S/B ratio over control)","fold (BLI enhancement), additional previously known ABCG2 inhibitors","Fold (BLI enhancement), known compounds","Fold (BLI enhancement), previously unknown compounds",BLI signal enhancement
CCC(C)(C)C(=O)O[C@H]1C[C@@H](C)C=C2C=C[C@H](C)[C@H](CC[C@@H]3C[C@@H](O)CC(=O)O3)[C@H]21 [simvastatin],2.7 fold,,,,
COc1ccc(C(=O)NCc2ccc(OCCN(C)C)cc2)cc1OC [itopride hydrochloride],2.2 fold,,,,
N#CC(c1ccc(Cl)cc1)c1c(Cl)cc(-n2ncc(=O)[nH]c2=O)cc1Cl (stereo not drawn) [diclazuril],2.4 fold,,,,
C#C[C@]1(O)CC[C@H]2[C@@H]3CCc4cc(O)ccc4[C@H]3CC[C@@]21C [ethinyl estradiol],2.4 fold,,,,
CC(=O)O[C@]1(C(C)=O)CC[C@H]2[C@@H]3C=C(C)C4=CC(=O)CC[C@]4(C)[C@H]3CC[C@@]21C [megestrol acetate],2.1 fold,,,,
CCC(=O)OCC(=O)[C@@]1(OC(=O)CC)[C@@H](C)C[C@H]2[C@@H]3CCC4=CC(=O)C=C[C@]4(C)[C@@]3(Cl)[C@@H](O)C[C@@]21C [beclomethasone dipropionate],3.2 fold,,,,
COc1ccc(-c2cc(=O)c3c(O)c(OC)c(OC)cc3o2)cc1O [eupatorin],5.6 fold,,,5.6 fold,
N#Cc1ccc2c(c1)N(CCCN1CCC(O)CC1)c1ccccc1S2 [periciazine],,,,6.3 fold,
COC(=O)Nc1nc2cc(C(=O)c3ccc(F)cc3)ccc2[nH]1 [flubendazole],6.3 fold,,,6.3 fold,
"CCCn1c(=O)c2[nH]c(C3CCCC3)nc2n(CCC)c1=O [1,3-dipropyl-8-cyclopentylxanthine]",4.3 fold,,,,
Cc1cc(O)c2c(c1)C(=O)c1cc(O)cc(O)c1C2=O [emodin],6.4 fold,,,6.4 fold,
O=c1[nH]c2ccccc2n1C1CCN(CCCC(c2ccc(F)cc2)c2ccc(F)cc2)CC1 [pimozide],2.0 fold,,,,
CCc1nn(CCCN2CCN(c3cccc(Cl)c3)CC2)c(=O)n1CCOc1ccccc1 [nefazodone hydrochloride],2.6 fold,,,,
CN1CCCN=C1/C=C/c1cccs1 [pyrantel],3.9 fold,,,,
COc1ccc([C@@H]2CC(=O)c3c(O)cc(O)cc3O2)cc1O [hesperetin],5.0 fold,,5.0 fold,,
OCc1cc(C(O)CNCCCCCCOCCCCc2ccccc2)ccc1O (stereo not drawn) [salmeterol xinafoate],2.4 fold,,,,
O=c1[nH]c2ccccc2n1CCCN1CCC(n2c(=O)[nH]c3cc(Cl)ccc32)CC1 [domperidone],2.5 fold,,,,
O=C1C[C@@H](c2ccc(O)cc2)Oc2cc(O)cc(O)c21 [naringenin],,1.9 fold,,,1.9 fold
